Results from patent publication EP0366638A2, “Neuromodulatory peptide” (KabiGen AB, priority 1988, dated 1990).

Experiments:
cortical neurones = assay: modulation of the electrophysiological activity of cortical neurones (microiontophoresis and pressure ejection procedure); settings: Fig. 2
Excerpt: The tripeptide from Example 1 above was used in modulation of the electrophysiological activity of cortical neurones, and the results of this experiment is illustrated in Fig. 2. […] In this experiment the procedure according to T.W. Stone (Ed.), "Microiontophonesis and pressure ejection", John Wiley & Sons, New York, 1985 was used.

spinal cord = assay: electrophysiological reflex response in the spinal cord; assay type: in vivo
Excerpt: The result of these experiments is shown in Fig. 3, from which it is clear that the tripeptide increases both the peak and the duration of the reflex response.

cortical brain slices = assay: release of acetylcholine from cortical brain slices; assay type: cell-based; settings: following depolarization, Fig. 1
Excerpt: The tripeptide resulting from the manufacture according to Example 1 above was used in a test system according to L. Nilsson, V.R. Sara and A. Nordberg, Neurosience Letters, 1988, Vol. 88, pp 221-226. This test procedure is based on stimulation of the release of acetylcholine from cortical brain slices.

With `NCC(=O)N1CCC[C@H]1C(=O)N[C@@H](CCC(=O)O)C(=O)O` [tripeptide, glycylprolylglutamic acid] the “neural response to neurotransmitters” value (cortical neurones; cortical neurones) was “modulates”, the cortical neurone activity (cortical neurones; electrophysiological activity) was “both stimulates and inhibits” and the “duration of the reflex response” value (spinal cord; Fig. 3) was “increases”. For the same molecule, the “peak of the reflex response” value (spinal cord; Fig. 3) was “increases”, the “electrophysiological reflex response in the spinal cord” value (spinal cord; in vivo) was “facilitate” and the “release of acetylcholine from neurones” value (cortical brain slices) was “inhance the release of acetylcholine”.
